According to US12624018B1, “Inhibitors of RIPK2 and medical uses thereof” (Odyssey Therapeutics, Inc., priority 2022, dated 2026):

target: T1, RIPK2 enzyme (Homo sapiens, UniProt O43353); experiment: RIPK2 inhibition (ADP-Glo Kinase Assay); assay type: biochemical; conditions: RIPK2 5 nM, ATP 150 μM, MBP substrate, read-out: RIPK2 IC50
T1 construct: purchased Carna 09-128
In short: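 Swine MBP substrate; compound and 5 nM RIPK2 first mixed for 30 min at room temperature; buffer pH 7.5 HEPES 50 mM with 10 mM MgCl2, 2 mM DTT, 1 mM EGTA, Brij-35, BSA.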

T1 sequence (O43353 1-299 limits assumed): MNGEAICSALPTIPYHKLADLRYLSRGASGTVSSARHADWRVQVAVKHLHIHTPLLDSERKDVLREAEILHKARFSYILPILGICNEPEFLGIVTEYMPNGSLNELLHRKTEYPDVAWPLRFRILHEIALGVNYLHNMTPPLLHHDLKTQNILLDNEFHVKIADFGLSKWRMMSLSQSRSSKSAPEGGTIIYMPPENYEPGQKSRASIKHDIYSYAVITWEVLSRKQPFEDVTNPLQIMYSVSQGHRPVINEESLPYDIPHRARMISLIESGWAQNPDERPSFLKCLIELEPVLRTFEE

IC50, 5.9 nM:
Cc1cc(CC(=O)Nc2cnn(C(C)(C)C)c2)ccc1Oc1ccnc2ccc(OC3CNC3)cc12 [Compound 228, 2-(4-((6-(azetidin-3-yloxy)quinolin-4-yl)oxy)-3-methyl-pheny 1)-N-(1-(tert-butyl)-1H-pyrazol-4-yl)acetamide]

IC50, < 2.5 nM:
Cc1cc(CC(=O)Nc2cnn(C(C)(C)C)c2)ccc1Oc1ccnc2ccc(S(=O)(=O)CCO)cc12 [Compound 203, N-(1-(tert-butyl)-1H-pyrazol-4-yl)-2-(4-((6-((2-hydroxyethyl)sulfonyl)quinolin-4-yl)oxy)-3-methylphenyl)acetamide]
COCCS(=O)(=O)c1ccc2nccc(Oc3ccc(CC(=O)Nc4cnn(C(C)(C)C)c4)cc3C)c2c1 [Compound 204, N-(1-(tert-butyl)-1H-pyrazol-4-yl)-2-(4-((6-((2-methoxyethyl)sulfonyl)quinolin-4-yl)oxy)-3-methylphenyl)acetamide]
Cc1cc(CC(=O)Nc2cnn(C(C)(C)C)c2)ccc1Oc1ccnc2ccc(S(=O)(=O)CC3CC3)cc12 [Compound 205, N-(1-(tert-butyl)-1H-pyrazol-4-yl)-2-(4-((6-((cyclopropylmethyl)sulfonyl)quinolin-4-yl)oxy)-3-methylphenyl)acetamide]
Cc1cc(CC(=O)Nc2cnn(C(C)(C)C)c2)ccc1Oc1ccnc2ccc(S(=O)(=O)C(C)C)cc12 [Compound 206, N-(1-(tert-butyl)-1H-pyrazol-4-yl)-2-(4-((6-(isopropylsulfonyl)quinolin-4-yl)oxy)-3-methylphenyl)acetamide]
Cc1cc(CC(=O)Nc2cnn(C(C)(C)C)c2)ccc1Oc1ccnc2ccc(C(=O)N3CCNCC3)cc12 [Compound 207, N-(1-(tert-butyl)-1H-pyrazol-4-yl)-2-(3-methyl-4-((6-(piperazine-1-carbonyl)quinolin-4-yl)oxy)phenyl) acetamide]
Cc1cc(CC(=O)Nc2cnn(C(C)(C)C)c2)ccc1Oc1ccnc2ccc(C(=O)N3CC(F)C3)cc12 [Compound 208, N-(1-(tert-butyl)-1H-pyrazol-4-yl)-2-(4-((6-(3-fluoro-azetidine-1-carbonyl)quinolin-4-yl)oxy)-3-methyl-phenyl) acetamide]
Cc1cc(CC(=O)Nc2cnn(C(C)(C)C)c2)ccc1Oc1ccnc2ccc(C(=O)N3CC(C#N)C3)cc12 [Compound 209, N-(1-(tert-butyl)-1H-pyrazol-4-yl)-2-(4-((6-(3-cyano-azetidine-1-carbonyl)quinolin-4-yl)oxy)-3-methyl-phenyl) acetamide]
Cc1cc(CC(=O)Nc2cnn(C(C)(C)C)c2)ccc1Oc1ccnc2ccc(C(=O)N3CCCC3)cc12 [Compound 210, N-(1-(tert-butyl)-1H-pyrazol-4-yl)-2-(3-methyl-4-((6-(pyrrolidine-1-carbonyl)quinolin-4-yl)oxy)phenyl) acetamide]
Cc1cc(CC(=O)Nc2cnn(C(C)(C)C)c2)ccc1Oc1ccnc2ccc(OC3CC4(CNC4)C3)cc12 [Compound 211, 2-(4-((6-((2-azaspiro[3.3]heptan-6-yl)oxy)quinolin-4-yl)oxy)-3-methyl-phenyl)-N-(1-(tert-butyl)-1H-pyrazol-4-yl)acetamide]
Cc1cc(CC(=O)Nc2cnn(C(C)C)c2)ccc1Oc1ccnc2ccc(S(C)(=O)=O)cc12 [Compound 212, N-(1-isopropyl-1H-pyrazol-4-yl)-2-(3-methyl-4-((6-(methylsulfonyl)quinolin-4-yl)oxy)phenyl)acetamide]
Cc1cc(CC(=O)Nc2cnn(C3CCC3)c2)ccc1Oc1ccnc2ccc(S(C)(=O)=O)cc12 [Compound 213, N-(1-cyclobutyl-1H-pyrazol-4-yl)-2-(3-methyl-4-((6-(methylsulfonyl)quinolin-4-yl)oxy)phenyl)acetamide]
Cc1cc(CC(=O)Nc2cnn(C3CCCC3)c2)ccc1Oc1ccnc2ccc(S(C)(=O)=O)cc12 [Compound 214, N-(1-cyclopentyl-1H-pyrazol-4-yl)-2-(3-methyl-4-((6-(methylsulfonyl)quinolin-4-yl)oxy)phenyl)acetamide]
COc1cc2nccc(Oc3ccc(CC(=O)Nc4cnn(C(C)(C)C)c4)cc3C)c2cc1S(C)(=O)=O [Compound 216, N-(1-(tert-butyl)-1H-pyrazol-4-yl)-2-(4-((7-methoxy-6-(methylsulfonyl)quinolin-4-yl)oxy)-3-methylphenyl) acetamide]
CCOc1cc2nccc(Oc3ccc(CC(=O)Nc4cnn(C(C)(C)C)c4)cc3C)c2cc1S(C)(=O)=O [Compound 217, N-(1-(tert-butyl)-1H-pyrazol-4-yl)-2-(4-((7-ethoxy-6-(methylsulfonyl)quinolin-4-yl)oxy)-3-methylphenyl) acetamide]
Cc1cc(CC(=O)Nc2cnn(C(C)(C)C)c2)ccc1Oc1ccnc2cc(OC(F)F)c(S(C)(=O)=O)cc12 [Compound 218, N-(1-(tert-butyl)-1H-pyrazol-4-yl)-2-(4-((7-(difluoromethoxy)-6-(methylsulfonyl)quinolin-4-yl)oxy)-3-methylphenyl) acetamide]
Cc1cc(CC(=O)Nc2cnn(C(C)(C)C)c2)ccc1Oc1ccnc2cc(OCC(F)(F)F)c(S(C)(=O)=O)cc12 [Compound 219, N-(1-(tert-butyl)-1H-pyrazol-4-yl)-2-(3-methyl-4-((6-(methylsulfonyl)-7-(2,2,2-trifluoroethoxy)quinolin-4-yl)oxy)phenyl)acetamide]
Cc1cc(CC(=O)Nc2cnn(C(C)(C)C)c2)ccc1Oc1ccnc2ccc(OCCN)cc12 [Compound 222, 2-(4-((6-(2-aminoethoxy)quinolin-4-yl)oxy)-3-methyl-phenyl)-N-(1-(tert-butyl)-1H-pyrazol-4-yl)acetamide]
Cc1cc(CC(=O)Nc2cnn(C(C)(C)C)c2)ccc1Oc1ccnc2ccc(OCCO)cc12 [Compound 223, N-(1-(tert-butyl)-1H-pyrazol-4-yl)-2-(4-((6-(2-hydroxy-ethoxy)quinolin-4-yl)oxy)-3-methylphenyl) acetamide]
Cc1cc(CC(=O)Nc2cnn(C(C)(C)C)c2)ccc1Oc1ccnc2ccc(OCC(C)(C)O)cc12 [Compound 226, N-(1-(tert-butyl)-1H-pyrazol-4-yl)-2-(4-((6-(2-hydroxy-2-methyl-propoxy)quinolin-4-yl)oxy)-3-methylphenyl) acetamide]
Cc1cc(CC(=O)Nc2cnn(C(C)(C)C)c2)ccc1Oc1ccnc2ccc(OCC(=O)O)cc12 [Compound 227, 2-((4-(4-(2-((1-(tert-butyl)-1H-pyrazol-4-yl)amino)-2-oxoethyl)-2-methyl-phenoxy)quinolin-6-yl)oxy)acetic acid]
CC(=O)N1CC(Oc2ccc3nccc(Oc4ccc(CC(=O)Nc5cnn(C(C)(C)C)c5)cc4C)c3c2)C1 [Compound 229, 2-(4-((6-((1-acetylazetidin-3-yl)oxy)quinolin-4-yl)oxy)-3-methyl-phenyl)-N-(1-(tert-butyl)-1H-pyrazol-4-yl)acetamide]
Cc1cc(CC(=O)Nc2cc(C(C)(C)C)n(C)n2)ccc1Oc1ccnc2ccc(S(C)(=O)=O)cc12 [Compound 230, N-(5-(tert-butyl)-1-methyl-1H-pyrazol-3-yl)-2-(3-methyl-4-((6-(methylsulfonyl)quinolin-4-yl)oxy)phenyl)acetamide]
[2H]C([2H])([2H])n1nc(NC(=O)Cc2ccc(Oc3ccnc4ccc(S(C)(=O)=O)cc34)c(C)c2)cc1C(C)(C)C [Compound 231, N-(5-(tert-butyl)-1-(methyl-d3)-1H-pyrazol-3-yl)-2-(3-methyl-4-((6-(methylsulfonyl)quinolin-4-yl)oxy)phenyl)acetamide]
CCn1nc(NC(=O)Cc2ccc(Oc3ccnc4ccc(S(C)(=O)=O)cc34)c(C)c2)cc1C(C)(C)C [Compound 232, N-(5-(tert-butyl)-1-ethyl-1H-pyrazol-3-yl)-2-(3-methyl-4-((6-(methylsulfonyl)quinolin-4-yl)oxy)phenyl)acetamide]
Cc1cc(CC(=O)Nc2cc(C(C)C)n(C)n2)ccc1Oc1ccnc2ccc(S(C)(=O)=O)cc12 [Compound 233, N-(5-isopropyl-1-methyl-1H-pyrazol-3-yl)-2-(3-methyl-4-((6-(methylsulfonyl)quinolin-4-yl)oxy)phenyl)acetamide]
Cc1cc(CC(=O)Nc2cc(C3CC3)[nH]n2)ccc1Oc1ccnc2ccc(S(C)(=O)=O)cc12 [Compound 234, N-(5-cyclopropyl-1H-pyrazol-3-yl)-2-(3-methyl-4-((6-(methylsulfonyl)quinolin-4-yl)oxy)phenyl)acetamide]
Cc1cc(CC(=O)Nc2cc(C3CC3)n(C)n2)ccc1Oc1ccnc2ccc(S(C)(=O)=O)cc12 [Compound 235, N-(5-cyclopropyl-1-methyl-1H-pyrazol-3-yl)-2-(3-methyl-4-((6-(methylsulfonyl)quinolin-4-yl)oxy)phenyl)acetamide]
Cc1cc(CC(=O)Nc2cc(C(C)(C)O)[nH]n2)ccc1Oc1ccnc2ccc(S(C)(=O)=O)cc12 [Compound 236, N-(5-(2-hydroxypropan-2-yl)-1H-pyrazol-3-yl)-2-(3-methyl-4-((6-(methylsulfonyl)quinolin-4-yl)oxy)phenyl)acetamide]
Cc1cc(CC(=O)Nc2cnn(C(C)(C)C)c2)ccc1Oc1ccnc2ccc(S(=O)(=O)CC3COC3)cc12 [Compound 240, N-(1-(tert-butyl)-1H-pyrazol-4-yl)-2-(3-methyl-4-((6-((oxetan-3-ylmethyl)sulfonyl)quinolin-4-yl)oxy)phenyl)acetamide]
Cc1cc(CC(=O)Nc2cnn(C(C)(C)C)c2)ccc1Oc1ccnc2ccc(S(=O)(=O)C3CCC(=O)NC3)cc12 (stereo not shown) [Compound 243, N-(1-(tert-butyl)-1H-pyrazol-4-yl)-2-(3-methyl-4-((6-((6-oxopiperidin-3-yl)sulfonyl)quinolin-4-yl)oxy)phenyl)acetamide]
